US8415367B2, “Pyrimidinylpiperidinyloxypyridinone analogues as GPR119 modulators” (Bristol-Myers Squibb Company, priority 2010, dated 2013)
Read-outs that look alike come from different tables or passages of the source.

Legend:
male C57BL/6J mice = test: Mouse oral glucose tolerance test; format: in vivo; settings: for Minimally efficacious Dose / Glucose Lowering: oral; for Minimally efficacious Dose: given 60 min before glucose load (2 g/kg), oGTT in C57BL/6J mice; for Glucose Lowering: plasma glucose AUC change vs vehicle at the minimally efficacious dose
Protocol: Mouse Oral Glucose Tolerance Test
Twenty four (24) male C57BL/6J mice (8-10 weeks old, average weight 28 g) were randomized into 4 groups (1 mouse/cage) of 6 mice per group based on fed plasma glucose and body weight. Prior to initiating the study, mice were fasted overnight and the next morning they were weighed and placed in the experimental lab. After 30 min in the environment, the mice were bled via tail tip at −60 min and immediately given their first oral administration of vehicle (40% PEG400, 10% Cremophor EL, 50% water) or compound solutions (5 ml/kg). At time 0 the mice were bled and given 50% glucose (2 g/kg) to initiate the oral glucose tolerance test (oGTT). The mice were bled 30, 60 and 120 min after the glucose load. Blood samples were drawn into potassium EDTA, placed on ice during the study and subsequently centrifuged for 10 min at 3000 rpm at 4° C. Plasma samples were diluted 11-fold for glucose analysis in the COBAS MIRA® System (Roche Diagnostics). Area under the curve was calculated from the plasma glucose time course data using the trapezoid rule with fasting plasma glucose as the baseline (GraphPad Prism Software). The statistical significance of the changes in the glucose AUCs resulting from the different treatments was determined by one-way ANOVA followed by Dunnett's test using the vehicle group as the control (JMP software, release 5.1.2).
Find below in Table 6 data for compared compounds (See WO 2009/012275 A1).

[1] = target: T1, human-mouse chimeric GPR119 (Homo sapiens, UniProt Q8TDV5, A235T/C313R/C323Y/E253K/F304I/F307L/G211A/G245S/H255C/K284R/L224V/L258Q/L288Q/L301F/P218V/P318T/Q252H/R262K/S214P/S219N/S228A/S309P/S322A/T217S/T239S/V227I/V300F); test: Tet-inducible cAMP assay (cAMP accumulation, HTRF); format: cell-based
T1 construct: the first 198 amino acids of human GPR119; the C-terminal 137 amino acids of the mouse receptor; expressed in transfected cells
T1 sequence (Q8TDV5 with tags, fused parts or gaps G211A/S214P/T217S/P218V/S219N/L224V/V227I/S228A/A235T/T239S/G245S/Q252H/E253K/H255C/L258Q/R262K/K284R/L288Q/V300F/L301F/F304I/F307L/S309P/C313R/P318T/S322A/C323Y): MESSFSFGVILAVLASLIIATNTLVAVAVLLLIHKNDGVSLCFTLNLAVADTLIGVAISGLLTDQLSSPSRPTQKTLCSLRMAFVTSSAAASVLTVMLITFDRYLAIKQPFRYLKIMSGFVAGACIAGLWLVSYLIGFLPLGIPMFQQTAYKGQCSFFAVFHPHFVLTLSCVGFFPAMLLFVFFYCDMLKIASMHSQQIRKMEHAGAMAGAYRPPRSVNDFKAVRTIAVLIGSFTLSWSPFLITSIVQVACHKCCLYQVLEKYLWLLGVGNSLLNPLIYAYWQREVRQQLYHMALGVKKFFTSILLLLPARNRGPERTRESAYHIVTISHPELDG
Protocol: The in vitro modulation of recombinant human GPR119 was determined as follows.
A human-mouse chimeric GPR119 expression construct encoding 3 copies of the FLAG epitope tag, the first 198 amino acids of human GPR119 and the C-terminal 137 amino acids of the mouse receptor was cloned into a tetracycline inducible vector pcDNA5/FRT/TO (Invitrogen #V6520-20), which includes a hygromycin-resistance marker. Tightly controlled receptor expression was achieved by stable integration of this construct into the genome of a specific host cell line, Flp-In-T-Rex-HEK293, expressing the tetracycline repressor (Invitrogen). Once a stable hygromycin-resistant cell line was generated, the cells were maintained at 37° C. in a humidified 5% CO2 atmosphere in culture medium consisting of Dulbecco's modified Eagle's medium (DMEM; Invitrogen #11960) supplemented with 2 mM L-glutamine, 10% fetal bovine serum, 200 μg/ml hygromycin B, and 15 μg/ml blasticidin.
Forty-eight hours prior to the cAMP accumulation assay, cells stably expressing the chimeric human/mouse GPR119 construct were seeded at a density of 4×10^3 cells/well in 384 well poly-D-lysine coated solid white plates (BD #35-6661) and grown at 37° C. in a humidified 5% CO2 atmosphere in culture medium supplemented with 1 μg/ml tetracycline to induce expression of the receptor. On the day of the assay, medium was removed and cells were incubated for 50 min. at 37° C. in a humidified 5% CO2 atmosphere in 20 μl/well of assay buffer (phosphate-buffered saline with Ca^2+ and Mg^2+, 12 mM glucose, 0.1 mM isobutyl-methyl-xanthine, 0.1% fatty-acid free bovine serum albumin) with the desired concentration of compound added from a concentrated stock dissolved in dimethyl sulfoxide (DMSO) to give a final concentration of 1% DMSO in the assay. cAMP accumulation was measured using the CisBio homogeneous time resolved fluorescence (HTRF) assay kit (#62AM2PEC) following the manufacturer's protocol. Briefly, 10 μl each of the cAMP-HTRF fluorescence detection reagents were added to each well, and the samples were incubated for 40 min. at room temperature. Fluorescence was excited at 320 nm and measured at 665 and 620 nm using the Envision instrument (Perkin Elmer), the fluorescence ratio of 665/620 was calculated and converted to nanomolar concentrations of cAMP in each well by interpolation from a cAMP standard curve. The concentration-response curves and EC50 values were calculated with a four parameter logistic curve fit equation utilizing Excel/XLfit software (Microsoft and IDBS). The EC50 value was calculated as the concentration of agonist which increased the cAMP concentration to a value halfway between the baseline and the maximum.
Compounds of the present invention were tested in the Tet-inducible cAMP assay described immediately above and the results shown in Table 5 below were obtained.

in vitro = settings: human, microsomes, pH 7.4
Protocol: (§1) Metabolic Stability in Liver Microsomes Test
(§2) Human liver microsomes were purchased from BD-Biosciences (Woburn, Mass.). The test compound was received as a 3.5 mM stock solution in 100 percent dimethyl sulfoxide (“DMSO”, Sigma Aldritch). […] The test compound, β-nicotinamide adenine dinucleotide phosphate (“NADPH”, AppliChem Inc.) and liver microsome solutions are combined for incubation in three steps:
(§3) 1) 450 μl of liver microsome suspension, protein concentration of 1.1 mg/ml in 100 mM sodium (+)/phosphate (“NaPi”, pH 7.4, Sigma Aldritch) buffer, 5 mM magnesium chloride (“MgCl2, Sigma Aldritch) buffer, is pre-warmed at 37° C.;
(§4) 3) The reaction is initiated by the addition of 50 μl of pre-warmed 10 mM NADPH solution in 100 mM NaPi, pH 7.4.
(§5) Reaction components are mixed well and then 65 μl are immediately transferred into 130 μl of quench/stop solution (zero-time point, T0). […] ACN containing Internal Standard (100 ng/ml), is used as the quench solution to terminate metabolic reactions. The quenched mixtures are centrifuged at 1500 rpm (˜500×g) in an Allegra X-12 centrifuge, SX4750 rotor (Beckman Coulter Inc., Fullerton, Calif.) for fifteen minutes to pellet denatured microsomes. A volume of 90 μl of supernatant extract, containing the mixture of parent compound and its metabolites, is then transferred to a separate 96-well plate for LC/MS-MS analysis to determine the percent of parent compound that is remaining in the mixture. Peak integration is performed on all samples using the Hepatic Clearance Calculator of QuickCalc by Gubbs, Inc. The percent remaining calculation is performed by comparing the LC-MS/MS peak areas from the samples at each time point to those from the T0 samples for each compound.

[2] = Metabolic stability in liver microsomes test; settings: human, pH 7.4
Protocol: as §1, §2, §3, §4, §5

[3] = Flp-In-T-Rex-HEK293 cells expressing chimeric human/mouse GPR119, cAMP accumulation, read-out: GPR119 EC50

| SMILES | reduction in glucose (male C57BL/6J mice; at the stated dose (0.1 mg/kg Example 1; 0.3 mg/kg Example 224 of WO 2009/012275 A1)) | Minimally efficacious Dose (male C57BL/6J mice) | Glucose Lowering (male C57BL/6J mice) | EC50 [1] | half-life at 0.5 µM (in vitro) | half-life at 0.5 µM [2] | EC50 [1, 3] |
| --- | --- | --- | --- | --- | --- | --- | --- |
| CS(=O)(=O)c1ccc(-n2cc(Cl)c(OC3CCN(c4ncc(C(F)(F)F)cn4)CC3)cc2=O)cc1 [Example 1, 5-Chloro-1-(4-(methylsulfonyl)phenyl)-4-(1-(5-(trifluoromethyl)pyrimidin-2-yl)piperidin-4-yloxy)pyridin-2(1H)-one] | 24% | 0.1 mg/kg | −24% | 8 nM | 180 min |  |  |
| CS(=O)(=O)c1ccc(-n2cc(Cl)c(OC3CCN(c4ncc(C(F)(F)F)cn4)CC3)cc2=O)c(F)c1 [Example 2, 5-Chloro-1-(2-fluoro-4-(methylsulfonyl)phenyl)-4-(1-(5-(trifluoromethyl)pyrimidin-2-yl)piperidin-4-yloxy)pyridin-2 (1H)-one] |  | 0.1 mg/kg | −29% | 12 nM | 147 min |  |  |
| CS(=O)(=O)c1ccc(-n2cc(Cl)c(OC3CCN(c4ncc(C(F)(F)F)cn4)CC3)cc2=O)cc1F [Example 3, 5-Chloro-1-(3-fluoro-4-(methylsulfonyl)phenyl)-4-(1-(5-(trifluoromethyl)pyrimidin-2-yl)piperidin-4-yloxy)pyridin-2(1H)-one] |  | 0.1 mg/kg | −28% | 7 nM | 108 min |  |  |
| CS(=O)(=O)c1ccc(-n2cc(Cl)c(OC3CCN(c4ncc(Cl)cn4)CC3)cc2=O)cc1 [Example 4, 5-Chloro-4-(1-(5-chloropyrimidin-2-yl)piperidin-4-yloxy)-1-(4-(methylsulfonyl)phenyl)pyridin-2(1H)-one] |  | 0.03 mg/kg | −24% | 5 nM |  | 57 min |  |
| CS(=O)(=O)c1ccc(-n2cc(Cl)c(OC3CCN(c4ncc(Cl)cn4)CC3)cc2=O)c(F)c1 [Example 5, 5-Chloro-4-(1-(5-chloropyrimidin-2-yl)piperidin-4-yloxy)-1-(2-fluoro-4-(methylsulfonyl)phenyl)pyridin-2(1H)-one] |  | 0.06 mg/kg | −29% | 3 nM | 105 min |  |  |
| CS(=O)(=O)c1ccc(-n2cc(Cl)c(OC3CCN(c4ncc(Cl)cn4)CC3)cc2=O)cc1F [Example 6, 5-Chloro-4-(1-(5-chloropyrimidin-2-yl)piperidin-4-yloxy)-1-(3-fluoro-4-(methylsulfonyl)phenyl)pyridin-2(1H)-one] |  | 0.1 mg/kg | −36% | 4 nM |  | 39 min |  |
| CCS(=O)(=O)c1ccc(-n2cc(Cl)c(OC3CCN(c4ncc(C(F)(F)F)cn4)CC3)cc2=O)c(F)c1 [Example 8, 5-Chloro-1-(4-(ethylsulfonyl)-2-fluorophenyl)-4-(1-(5-(trifluoromethyl)pyrimidin-2-yl)piperidin-4-yloxy)pyridin-2(1H)-one] |  | 0.03 mg/kg | −26% |  | 120 min |  | 8 nM |
| CCS(=O)(=O)c1ccc(-n2cc(Cl)c(OC3CCN(c4ncc(C(F)(F)F)cn4)CC3)cc2=O)cc1F [Example 9, 5-Chloro-1-(4-(ethylsulfonyl)-3-fluorophenyl)-4-(1-(5-(trifluoromethyl)pyrimidin-2-yl)piperidin-4-yloxy)pyridin-2(1H)-one] |  |  |  |  | 88 min |  | 13 nM |
| CCS(=O)(=O)c1ccc(-n2cc(Cl)c(OC3CCN(c4ncc(Cl)cn4)CC3)cc2=O)cc1 [Example 10, 5-Chloro-4-(1-(5-chloropyrimidin-2-yl)piperidin-4-yloxy)-1-(4-(ethylsulfonyl)phenyl)pyridin-2(1H)-one] |  |  |  |  | 35 min |  | 2 nM |
| CCS(=O)(=O)c1ccc(-n2cc(Cl)c(OC3CCN(c4ncc(Cl)cn4)CC3)cc2=O)c(F)c1 [Example 11, 5-Chloro-4-(1-(5-chloropyrimidin-2-yl)piperidin-4-yloxy)-1-(4-(ethylsulfonyl)-2-fluorophenyl)pyridin-2(1H)-one] |  |  |  |  | 51 min |  | 6 nM |
